Data: the supplement of paper PMC10307832

These cell lines were tested with CC(C)C[C@@H](C(=O)N[C@H](C(=O)OC1CCCC1)c1ccccc1)[C@H](O)C(=O)NO [Tosedostat] + CCNC(=O)c1noc(-c2cc(C(C)C)c(O)cc2O)c1-c1ccc(CN2CCOCC2)cc1 [Luminespib] (partner 0.01 µM) (assay: relative viability (nuclei count vs DMSO), 5 days (fraction); higher = more cells survive). Conditions: first compound 2 µM.
In short: (§1)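 Lung cancer cell lines, seeded in 1536-well plates, were treated the following day by pin tool with a single drug or with five library-drug doses (not always all listed) in √10 steps on top of a fixed anchor-drug dose. Cells were fixed and nuclei stained in one step after 5 days, and nuclei were counted. Relative viability is the nuclei count for treated wells divided by that for vehicle wells, reported as medians of duplicate plates.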

Cell Line	relative viability
NCI-H2347	0.474
NCI-H2342	0.883
SK-MES-1	0.74
H3255	0.75
COR-L23	0.504
COR-L 105	0.693
LU99A	0.232
ChaGo-K-1	0.491
NCI-H2170	0.662
NCI-H460	0.0255
HOP-62	0.817
HCC-44	0.834
SW 900	0.155
LXF-289	0.64
BEN	0.248
HARA	0.779
NCI-H1563	0.492

The cell lines below were run with CC(C)C[C@@H](C(=O)N[C@H](C(=O)OC1CCCC1)c1ccccc1)[C@H](O)C(=O)NO [Tosedostat] + Cc1nc(Nc2ncc(C(=O)Nc3c(C)cccc3Cl)s2)cc(N2CCN(CCO)CC2)n1 [Dasatinib] (partner 0.075 µM) in the same assay as above. Conditions: first compound 0.02 µM.
In short: as §1

Cell Line	relative viability
NCI-H522	0.901
NCI-H1623	0.585
SK-LU-1	0.184
NCI-H1792	0.777
NCI-H2087	1.17
NCI-H596	0.648
NCI-H1355	0.758
SW 1573	0.572
LCLC-103H	0.49
NCI-H727	0.404
NCI-H2405	0.221
EMC-BAC-2	0.317
NCI-H23	0.785
HCC-366	0.723
NCI-H1755	0.436
NCI-H838	0.317
LK-2	0.29

Cell Line	relative viability
NCI-H2347	0.269
NCI-H2342	0.306
SK-MES-1	0.285
H3255	0.278
COR-L23	0.546
COR-L 105	0.348
LU99A	0.517
ChaGo-K-1	0.662
NCI-H2170	0.575
NCI-H460	0.601
HOP-62	0.678
SW 900	0.54
LXF-289	0.199
BEN	0.348
HARA	0.304
HCC-78	0.317
NCI-H1563	0.507

Same assay, conditions: first compound 0.06325 µM

Cell Line	relative viability
NCI-H522	0.982
NCI-H1623	0.542
SK-LU-1	0.191
NCI-H1792	0.756
NCI-H2087	0.936
NCI-H596	0.623
NCI-H1355	0.681
SW 1573	0.36
LCLC-103H	0.523
NCI-H727	0.339
NCI-H2405	0.266
EMC-BAC-2	0.356
NCI-H23	0.817
HCC-366	0.594
NCI-H1755	0.403
NCI-H838	0.342
LK-2	0.275

Cell Line	relative viability
NCI-H2347	0.353
NCI-H2342	0.367
SK-MES-1	0.237
H3255	0.35
COR-L23	0.469
COR-L 105	0.37
LU99A	0.495
ChaGo-K-1	0.567
NCI-H2170	0.514
NCI-H460	0.644
HOP-62	0.628
SW 900	0.485
LXF-289	0.248
BEN	0.348
HARA	0.282
HCC-78	0.439
NCI-H1563	0.528

Same assay, conditions: first compound 0.2 µM

Cell Line	relative viability
NCI-H522	0.858
NCI-H1623	0.607
SK-LU-1	0.219
NCI-H1792	0.743
NCI-H2087	0.908
NCI-H596	0.614
NCI-H1355	0.728
SW 1573	0.368
LCLC-103H	0.503
NCI-H2405	0.218
EMC-BAC-2	0.343
NCI-H23	0.741
HCC-366	0.665
NCI-H1755	0.444
NCI-H838	0.299
LK-2	0.296
NCI-H2347	0.291

Cell Line	relative viability
NCI-H2342	0.321
SK-MES-1	0.329
H3255	0.347
COR-L23	0.495
COR-L 105	0.365
LU99A	0.506
ChaGo-K-1	0.587
NCI-H2170	0.558
NCI-H460	0.57
HOP-62	0.665
SW 900	0.714
LXF-289	0.244
BEN	0.39
HARA	0.235
HCC-78	0.37
NCI-H1563	0.459

Same assay, conditions: first compound 0.6325 µM

Cell Line	relative viability
NCI-H522	0.843
NCI-H1623	0.552
SK-LU-1	0.197
NCI-H1792	0.79
NCI-H2087	0.688
NCI-H596	0.656
NCI-H1355	0.592
SW 1573	0.317
LCLC-103H	0.366
NCI-H727	0.311
NCI-H2405	0.211
EMC-BAC-2	0.371
NCI-H23	0.662
HCC-366	0.556
NCI-H1755	0.42
NCI-H838	0.329
LK-2	0.4

Cell Line	relative viability
NCI-H2347	0.311
NCI-H2342	0.275
SK-MES-1	0.213
H3255	0.429
COR-L23	0.381
COR-L 105	0.323
LU99A	0.424
ChaGo-K-1	0.535
NCI-H2170	0.63
NCI-H460	0.459
HOP-62	0.685
SW 900	0.875
LXF-289	0.225
BEN	0.446
HARA	0.234
HCC-78	0.374
NCI-H1563	0.512

Same assay, conditions: first compound 2 µM

Cell Line	relative viability
NCI-H522	0.945
NCI-H1623	0.601
SK-LU-1	0.203
NCI-H1792	0.691
NCI-H2087	0.869
NCI-H596	0.619
NCI-H1355	0.57
SW 1573	0.314
LCLC-103H	0.341
NCI-H727	0.29
NCI-H2405	0.164
EMC-BAC-2	0.311
NCI-H23	0.455
HCC-366	0.646
NCI-H1755	0.361
NCI-H838	0.27
LK-2	0.267

Cell Line	relative viability
NCI-H2347	0.26
NCI-H2342	0.295
SK-MES-1	0.229
H3255	0.33
COR-L23	0.332
COR-L 105	0.298
LU99A	0.413
ChaGo-K-1	0.394
NCI-H2170	0.451
NCI-H460	0.498
HOP-62	0.57
SW 900	0.416
LXF-289	0.184
BEN	0.344
HARA	0.195
HCC-78	0.493
NCI-H1563	0.442

Each cell line was assayed with CC1=NN=C(O1)C2=NN=C(C=C2)N3CCC(CC3)OC4=C(C=CC(=C4)F)Cl + Cc1cc(Nc2cc(N3CCN(C)CC3)nc(Sc3ccc(NC(=O)C4CC4)cc3)n2)n[nH]1 [Tozasertib] (partner 0.1 µM) in the same assay as above. Conditions: first compound 0.253 µM.
In short: as §1

Cell Line	relative viability
NCI-H522	0.576
NCI-H1623	0.322
SK-LU-1	0.325
NCI-H2087	0.194
NCI-H596	0.966
NCI-H1355	0.496
SW 1573	0.131
LCLC-103H	0.411
NCI-H727	0.65
NCI-H2405	0.415
EMC-BAC-2	0.314
NCI-H23	0.312
HCC-366	0.076
NCI-H1755	0.425
NCI-H838	0.244
LK-2	0.171

Cell Line	relative viability
NCI-H2342	0.356
SK-MES-1	0.633
H3255	0.619
COR-L23	0.166
COR-L 105	0.328
LU99A	0.279
ChaGo-K-1	0.258
NCI-H2170	0.306
NCI-H460	0.0757
HOP-62	0.296
HCC-44	0.545
LXF-289	0.181
BEN	0.505
HARA	0.0993
NCI-H1648	0.242
HCC-78	0.376

Same assay, conditions: first compound 0.8 µM

Cell Line	relative viability
NCI-H522	0.578
NCI-H1623	0.435
NCI-H2087	0.157
NCI-H596	0.716
NCI-H1355	0.344
SW 1573	0.13
LCLC-103H	0.362
NCI-H727	0.804
NCI-H2405	0.325
EMC-BAC-2	0.274
HCC-366	0.0654
NCI-H1755	0.45
NCI-H838	0.248
LK-2	0.176
NCI-H2347	0.447
NCI-H2342	0.411

Cell Line	relative viability
SK-MES-1	0.641
H3255	0.489
COR-L23	0.131
COR-L 105	0.375
LU99A	0.271
ChaGo-K-1	0.226
NCI-H2170	0.416
NCI-H460	0.107
HOP-62	0.288
HCC-44	0.564
LXF-289	0.141
BEN	0.423
HARA	0.0831
NCI-H1648	0.325
HCC-78	0.319

Same assay, conditions: first compound 2.53 µM

Cell Line	relative viability
NCI-H522	0.558
NCI-H1623	0.372
SK-LU-1	0.275
NCI-H2087	0.156
NCI-H596	0.862
NCI-H1355	0.402
SW 1573	0.181
LCLC-103H	0.356
NCI-H727	0.53
NCI-H2405	0.395
EMC-BAC-2	0.283
NCI-H23	0.275
HCC-366	0.0544
NCI-H1755	0.467
NCI-H838	0.247
LK-2	0.176
NCI-H2347	0.579

Cell Line	relative viability
NCI-H2342	0.417
SK-MES-1	0.551
H3255	0.589
COR-L23	0.145
COR-L 105	0.365
LU99A	0.268
ChaGo-K-1	0.226
NCI-H2170	0.392
NCI-H460	0.144
HOP-62	0.205
HCC-44	0.513
SW 900	0.415
LXF-289	0.179
BEN	0.454
HARA	0.0894
NCI-H1648	0.293
HCC-78	0.266

Same assay, conditions: first compound 8 µM

Cell Line	relative viability
NCI-H522	0.534
NCI-H1623	0.385
SK-LU-1	0.25
NCI-H2087	0.114
NCI-H596	0.826
NCI-H1355	0.365
SW 1573	0.246
LCLC-103H	0.324
NCI-H727	0.668
NCI-H2405	0.424
EMC-BAC-2	0.284
NCI-H23	0.46
HCC-366	0.0419
NCI-H1755	0.405
NCI-H838	0.245
LK-2	0.134
NCI-H2347	0.497

Cell Line	relative viability
NCI-H2342	0.404
SK-MES-1	0.521
H3255	0.542
COR-L23	0.121
COR-L 105	0.427
LU99A	0.287
ChaGo-K-1	0.214
NCI-H2170	0.331
NCI-H460	0.129
HOP-62	0.222
HCC-44	0.487
SW 900	0.477
LXF-289	0.131
BEN	0.46
HARA	0.0804
NCI-H1648	0.344
HCC-78	0.288
